Read-outs that look alike come from different tables or passages of the source.
What was measured:
[1] = system: mut-KRAS NSCLC cell lines; assay: Screening against NSCLC cell line panel, mut-KRAS lines; type: cell-based; conditions: for inhibition of mut-KRAS cell growth (in words): FIG. 3 and FIG. 5
Protocol: (§1) The isogenic KRAS lines harboring G12D, G12C, and G12V were obtained from Horizon Discovery labs on a one year lease. These cells were cultured in McCoys media with 10% FBS to 80% confluency. Cells were then released from flasks via trypsinization and plated into 96-well plates at an initial density range of 2000 cells per well. Cells were allowed 24 hours to attach, and then the agents were added to the culture media at a range of concentrations from 0-100 μM. Cells were incubated for 72 hours with the drugs, and then viability was assessed using an MTS viability assay. Cells were exposed to MTS reagent (Promega) dissolved in PBS (Hyclone) at a concentration of 200 μL reagent/mL media for 2 hours. Absorbance was then read at 490 nm, and viability was expressed as a percentage normalized between the negative control (no cells plated) and the condition of cells with no drug added (100% viability) normalized as the upper limit of viability.
(§2) Our panel of 30 cell lines and an extensive characterization were obtained from Dr. John Minna (UTSW). All cell lines were cultured in RPMI 1640 with 10% FBS. Cells were treated with concentrations of agents at concentrations 0.01 to 50 μM and evaluated as described above. IC50's were determined using Excelfit.

AKT1 PH-domain = biological target: T1, AKT1 PH-domain (Homo sapiens, UniProt P31749); assay: SPR binding assay (Biacore T100), AKT1 PH-domain; conditions: for Kd: read-out: AKT KD; for AKT KD: Table 7, curated diversity set
T1 construct: The PH-domain His-fusion proteins (CNK1 and AKT1) were expressed and immobilized on a NTA chip; made in house
Protocol: (§3) All interaction analyses were done with a Biacore T100 Control Software v3.2, and BIAevaluation v4.1 analysis software (Biacore). The PH-domain His-fusion proteins (CNK1 and AKT1) were expressed and immobilized on a NTA chip to a level of 10,000 response units or less. Small molecule analytes at concentrations ranging from 50 μM to 0.010 μM were injected at a high flow rate (30 μL/min) DMSO concentrations in all samples and running buffer were 1-5% (v/v).
A commercially available docking package, GOLD (GOLD [3.2], CCDC: Cambridge, UK, 2007) was used to evaluate the docking of compounds 1-7 into the binding pocket, see e.g. Table 5. Other docking was performed using modeling algorithms with state-of-the-art commercial drug discovery software (Schrodinger suite). GLIDE was chosen as the docking algorithm used to select and optimize compounds, providing a GlideScore as a rough estimate of binding affinity that was used to rank and select the best compounds. Additionally, ligand-based approaches provided an alternative to structure based drug discovery. Ligand-based virtual screening methodologies can take into account shape and electrostatics (like ROCS) and the pharmacophoric features (acceptor, donor, hydrophobic, aromatic, etc.) of its functional groups. Inositol tetraphosphate (IP4) binding to the PH-domain of CNKSR1 provided a good starting point for shape screening. Both structure-based and ligand-based approaches were used to find novel compounds (Table 7) and to refine and improve lead compounds (Tables 8, and 9). SPR interaction analyses for Compounds 1 through 7 were performed with a Biacore 2000, using Biacore2000 Control Software v3.2 and BIAevaluation v4.1 analysis software (Biacore) as described in Mol Cancer Ther 7:2621 (2008). SPR interaction analyses of all other compounds was undertaken using a Biacore T100 with Control and Evaluation software kit.

CNK1 PH-domain (CNKSR1) = biological target: T2, CNK1 PH-domain (CNKSR1) (Homo sapiens, UniProt Q969H4); assay: SPR binding assay (Biacore T100), CNK1 PH-domain; conditions: for Surface Plasmon Resonance CNKSR1 binding (RU max) / Surface Plasmon Resonance CNKSR1 stability (RU max post-injection): date 12 09 13
T2 construct: The PH-domain His-fusion proteins (CNK1 and AKT1) were expressed and immobilized on a NTA chip; made in house
T2 sequence (Q969H4 403-502 limits assumed): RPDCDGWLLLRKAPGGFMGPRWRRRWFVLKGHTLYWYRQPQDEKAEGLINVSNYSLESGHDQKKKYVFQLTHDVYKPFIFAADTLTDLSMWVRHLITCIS
Protocol: as §3
Other docking was performed using modeling algorithms with state-of-the-art commercial drug discovery software (Schrodinger suite). […] Additionally, ligand-based approaches provided an alternative to structure based drug discovery. Ligand-based virtual screening methodologies can take into account shape and electrostatics (like ROCS) and the pharmacophoric features (acceptor, donor, hydrophobic, aromatic, etc.) of its functional groups. […] SPR interaction analyses of all other compounds was undertaken using a Biacore T100 with Control and Evaluation software kit.

wt-KRAS NSCLC cell lines = assay: Screening against NSCLC cell line panel, wt-KRAS lines; type: cell-based; conditions: for inhibition of wt-KRAS cell growth (in words): FIG. 5
Protocol: as §1, §2

[2] = Mouse pharmacokinetics (iv); type: in vivo; conditions: for clearance: in vivo
[3] = system: H226 (KRAS wildtype cell line); assay: Proliferation Assay H226; type: cell-based; conditions: Homo sapiens, NCI-H226, n = 1
Protocol: as §1, §2

[4] = system: H1373 (KRAS mutant cell line); assay: Proliferation Assay H1373; type: cell-based; conditions: Homo sapiens, NCI-H1373, N = 2 experiments
Protocol: as §1, §2

[5] = system: H1975 (KRAS wildtype cell line); assay: Proliferation Assay H1975; type: cell-based; conditions: Homo sapiens, NCI-H1975, n = 1
Protocol: as §1, §2

[6] = system: A549 (KRAS mutant cell line); assay: Proliferation Assay A549; type: cell-based; conditions: Homo sapiens, N = 2 experiments
Protocol: as §1, §2

[7] = Table 7, read-out: IC50 mut-KRAS
[8] = Table 7, read-out: IC50 WT-KRAS
[9] = Table 5, read-out: Mean IC50 mut-KRAS

T1 sequence (P31749 5-108 limits assumed): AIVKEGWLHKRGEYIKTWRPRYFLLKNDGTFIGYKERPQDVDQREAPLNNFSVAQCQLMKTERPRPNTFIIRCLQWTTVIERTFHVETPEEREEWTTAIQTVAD

SMILES	IC50 [3]	IC50 [4]	IC50 [5]	Surface Plasmon Resonance CNKSR1 binding (RU max) (CNK1 PH-domain (CNKSR1))	Surface Plasmon Resonance CNKSR1 stability (RU max post-injection) (CNK1 PH-domain (CNKSR1))	IC50 [6]	Kd (AKT1 PH-domain; Table 8)	Kd (CNK1 PH-domain (CNKSR1); Table 8, read-out: CNK KD)	further results
Cc1ccc(-c2csc(Cn3nc(CC4OCC(=O)O4)c4ccccc4c3=O)n2)cc1 (centres unmarked) [Compound 11]									inhibition of mut-KRAS cell growth (in words) [1]: inhibited the growth; IC50 ([1]; Table 6, mean of 3 mut-KRAS lines, read-out: NSCL cell line cytotoxicity IC50 mut-KRAS): 45 µM; Kd (AKT1 PH-domain; Table 6): 2.53 µM; Kd (CNK1 PH-domain (CNKSR1); Table 6, read-out: CNKS KD): 0.27 µM; inhibition of wt-KRAS cell growth (in words) (wt-KRAS NSCLC cell lines): also inhibited; IC50 (wt-KRAS NSCLC cell lines; Table 6, mean of 3 wt-KRAS lines, read-out: NSCL cell line cytotoxicity IC50 wt-KRAS): 56 µM
O=C(O)CSc1cc(NS(=O)(=O)c2cccs2)c2ccccc2c1O [Compound 12]									inhibition of mut-KRAS cell growth (in words) [1]: more potently than compound 7 or its analogs; IC50 [1, 7]: 17 µM; AKT KD (AKT1 PH-domain): Bound; inhibition of wt-KRAS cell growth (in words) (wt-KRAS NSCLC cell lines): more potently than compound 7 or its analogs; IC50 (wt-KRAS NSCLC cell lines; [8]): 12 µM
O=C(O)c1ccc2c(c1)C1C=CCC1C(C(=O)O)N2 (centres unmarked) [Compound 56]									IC50 [1, 7]: > 100 µM; IC50 (wt-KRAS NSCLC cell lines; [8]): > 100 µM
Cc1ccc(-c2nc(SCC(=O)O)c3c(=O)n(C)c(=O)n(C)c3n2)cc1 [Compound 61]									IC50 [1, 7]: > 100 µM; IC50 (wt-KRAS NSCLC cell lines; [8]): > 100 µM
O=C(O)COc1cc(OCC(=O)O)c2c3c(c(=O)oc2c1)CCCC3 [Compound 76]									IC50 [1, 7]: > 100 µM; AKT KD (AKT1 PH-domain): Bound; IC50 (wt-KRAS NSCLC cell lines; [8]): > 100 µM
CCNC(=O)Cc1nn(Cc2nc(-c3ccc(C)cc3)cs2)c(=O)c2ccccc12 [Compound 78]	60 µM	45 µM	60 µM	0.224 RU * 100/Da	−0.065 RU * 100/Da	25 µM			t1/2β [2]: 28 min; clearance [2]: 34 mL/min/kg; Kd (AKT1 PH-domain; Table 6): 2.53 µM; Kd (CNK1 PH-domain (CNKSR1); Table 6, read-out: CNKS KD): 0.65 µM
Cc1ccc(-c2csc(Cn3nc(CC=O)c4ccccc4c3=O)n2)cc1 [Compound 79]									t1/2β [2]: 35 min; clearance [2]: 30 mL/min/kg; Kd (CNK1 PH-domain (CNKSR1); Table 6, read-out: CNKS KD): 4.2 µM
CCOC(=O)/C=C/c1cc(NS(=O)(=O)c2cccs2)c2c(c1OC)OCO2 [Compound 86, (E)-ethyl 3-(4-methoxy-7-(thiophene-2-sulfonamido)benzo[d][1,3]dioxol-5-yl)acrylate]	> 100 µM	> 100 µM	> 100 µM	−0.807 RU * 100/Da	−0.197 RU * 100/Da	> 100 µM	> 500 µM	123 µM	
COc1cc(NS(=O)(=O)c2cccs2)c(SC)c(/C=C/C(=O)O)c1O [Compound 104, (2E)-3-[2-hydroxy-3-methoxy-6-(methylsulfanyl)-5-(thiophene-2-sulfonamido)phenyl]prop-2-enoic acid]	75 µM	82 µM	> 100 µM	2.132 RU * 100/Da	2.049 RU * 100/Da	60 µM	4.8 µM	1.56 µM	
CCOC(=O)/C=C/c1c(O)c(O)cc(NS(=O)(=O)c2cccs2)c1SC [Compound 105, ethyl (2E)-3-[2,3-dihydroxy-6-(methylsulfanyl)-5-(thiophene-2-sulfonamido)phenyl]prop-2-enoate]	70 µM	42 µM	> 100 µM	−0.676 RU * 100/Da	−0.197 RU * 100/Da	100 µM	6.22 µM	2.86 µM	
CSc1c(NS(=O)(=O)c2cccs2)cc(O)c(O)c1/C=C/C(=O)O [Compound 106, (2E)-3-[2,3-dihydroxy-6-(methylsulfanyl)-5-(thiopliene-2-sulfonamido)phenyl]prop-2-enoic acid]	70 µM	58 µM	> 100 µM	−0.928 RU * 100/Da	0.511 RU * 100/Da	55 µM	13.5 µM	0.614 µM	
CCOC(=O)/C=C/c1c(O)c(OC)cc(N)c1SC [Compound 107, ethyl (E)-3-(5-amino-2-hydroxy-3-methoxy-6-methylsulfanylphenyl)prop-2-enoate]	60 µM	45 µM	95 µM	−0.174 RU * 100/Da	−0.083 RU * 100/Da	45 µM	286 µM	125 µM	
COc1cc(N)c(SC)c(/C=C/C(=O)O)c1O [Compound 108, (2E)-3-[3-amino-6-hydroxy-5-methoxy-2-(methylsulfanyl)phenyl]prop-2-enoic acid]	55 µM	38 µM	100 µM	−0.024 RU * 100/Da	0.056 RU * 100/Da	30 µM	133 µM	72.5 µM	
CCOC(=O)/C=C/c1c(O)c(O)cc(N)c1SC [Compound 109, ethyl (2E)-3-[3-amino-5,6-dihydroxy-2-(methylsulfanyl)phenyl]prop-2-enoate]	> 100 µM	> 100 µM	> 100 µM	1.527 RU * 100/Da	0.168 RU * 100/Da	> 100 µM	140 µM	19.2 µM	
CSc1c(N)cc(O)c(O)c1/C=C/C(=O)O [Compound 110, (2E)-3-[3-amino-5,6-dihydroxy-2-(methylsulfanyl)phenyl]prop-2-enoic acid]	65 µM	28 µM	> 100 µM	0.217 RU * 100/Da	0.032 RU * 100/Da	27 µM	178 µM		
CSc1sc(C#N)c(C)c1-c1ccn(S(=O)(=O)c2ccc(Cl)cc2)n1 [Compound 117]									IC50 [1, 9]: 21.9 ± 5.7 µM
O=S(=O)(Nc1n[nH]c(SCc2ccc(Cl)cc2)n1)c1ccc(-c2ccccn2)s1 [Compound 118]									IC50 [1, 9]: 49.3 ± 0.6 µM
Cn1c(Cc2nn(C)c(=O)c3ccccc23)nnc1SCC(=O)c1ccc(Cl)cc1Cl [Compound 119]									IC50 [1, 9]: > 50 µM
O=C(CSc1nnnn1-c1cccc(Cl)c1)c1cc2ccccc2o1 [Compound 121]									IC50 [1, 9]: 46.7 ± 3.3 µM
N#Cc1cnn(-c2ccccc2)c1NC(=O)CSc1nnc(-c2ccco2)n1-c1ccc(F)cc1 [Compound 122]									IC50 [1, 9]: > 50 µM
Cc1ccc(-c2csc(Cn3nc(CC(=O)N4CCN(C)CC4)c4ccccc4c3=O)n2)cc1 [Compound 123]									t1/2β [2]: 327 min; clearance [2]: 31 mL/min/kg

— patent US9340532B2, “Methods and compositions for inhibiting CNKSR1” (PHUSIS THERAPEUTICS, INC., priority 2012, dated 2016)
